Experiment [1] has as its system adenylate cyclase. The experiment in a line: Radioactive adenylate cyclase assay (modified Salomon, alpha-32P-ATP), rabbit ventricular membranes. To be noted: Iso 10^-6 M; GppNHp 10^-4 M; NaF 10^-2 M; n = 5. Type of experiment: biochemical, rabbit (New Zealand white). The procedure: (§1) Ventricular membrane preparations were prepared from five male New Zealand white rabbits (weight 2.4 kg; W.O.R.K., Philomith, Oreg.) sacrificed by cervical concussion and immediate incision of the heart as previously described. Briefly, hearts were placed in ice-cold SET buffer (0.25M sucrose, 0.1 mM EDTA, 5.0 mM Tris HCl, pH 7.4). Portions (1-2 g) from the ventricular apex were minced and then homogenized in ice-cold SET buffer (1/10, w/v). The homogenate was filtered through a Nitex filter (three layers) (Tetko, Los Angeles, Calif.) and then centrifuged for 20 min. at 1000×g. The pellet was resuspended and centrifuged three more times. The final pellet was resuspended in SET buffer (1.5 mg protein/ml) and stored at -70° C. until enzyme activity was measured.
A volume of 1.0 μl of either H2 O, NaF, guanylyl-5'-imidodiphosphate (GppNHp), isoproterenol, or isoproterenol+GppNHp were added to each of five reaction tubes and maintained at 0° C. […] Finally 25 μl of membrane suspension ([…]) were added to each tube and the reaction was initiated by placing the tubes in a water bath at 37° C. After 30 minutes, the reaction was terminated by the addition of 300 μl of a stopping solution which contained 0.34 HCl and ^3 H-cAMP, 10,000-20,000 cpm.
To generate the graph depicted in FIG. 2, 250 μl portions of reaction mixture A and membrane were used and 50 μl samples were removed from the 37° C. bath every 10 minutes, and stopped with 300 μl stopping solution. The assay tubes were heated at 95° C. for 5 minutes. ^32 P-cAMP was isolated using Dowex-alumina chromatography. Recovery, as assessed by ^3 H-cAMP, was 80-95%. All assays were conducted in triplicate. The time course of adenylate cyclase activity (n=5 different rabbit ventricular membrane preparations) is depicted in FIG. 1. Basal AC and agonist stimulated (0.1 mM GppNHp, 0.1 mM) AC are compared. The activity shown is (isoproterenol+GppNHp-stimulated AC activity) minus (GppNHp-stimulated activity). […]

The subject of experiment [2] is adenylate cyclase. The experiment is described as follows: Fluorometric (non-radioactive) adenylate cyclase assay, rabbit ventricular membranes. Type of experiment: biochemical, rabbit (New Zealand white). To be noted: NaF 10^-2 M; for Agonist-stimulated adenylate cyclase activity, fluorescent assay: Iso 10^-6 M, GppNHp 10^-4 M, n = 5; for stimulated activity, reduced assay volume: membrane suspension reduced from 25 μl to 5 μl, isoproterenol 10^-6 M. The procedure:
as §1
A volume of 1.0 μl of either H2 O, NaF, guanylyl -5'-imidodiphosphate (GppNHp), isoproterenol, or isoproterenol+GppNHp was added to each of five reaction tubes and maintained at 0° C. Next, 25 μl of reaction mixture B (tris Acetate 100 mM, pH 7.4; KCl 20 mM; MgCl2 10.0 mM; phosphoenolpyruvate 20 mM; ATP 2.0 mM; GTP 0.02 mM; dithiothreitol 2.0 mM; bovine serum albumin 0.04%; theophylline 0.2 mM; pyruvate kinase 1.0 mg/ml) were added to each reaction tube. Finally, 25 μl of membrane suspension (40 to 45 μg protein) were added to each tube and the reaction was initiated by placing the tubes in a water bath at 37° C. After 30 minutes at 37° C., the reaction was stopped by the addition of 50 μl of 50 mM NaOH. The reaction mixture was heated for 5 minutes at 95° C.
1. A volume of 20-40 μl of reaction product from Part A was added to 100 μl of cleaning reaction mix (Tris-HCl 50 mM, pH 8.0; MgCl2 5 mM; CaCl2, 2 mM; 5'-nucleotidase 0.025 units/ml; apyrase 0.02 units/ml; adenosine deaminase 0.1 mg/ml). After 30 minutes at 37° C., the reaction was terminated by heating it at 95° C. for 5 minutes.
2. […] After 60 minutes at 37° C., 600 μl of 2-amino-2-methyl-1-propanol (AMP2) 50 mM, pH 9.9 was added to the reaction mix and the final concentration of NADPH was measured fluorometrically.
Although the basal activity is nearly 3 times higher in the nonradioactive method, the "fold" stimulation is similar for both receptor-mediated agonists (isoproterenol±GppNHp) as well by NaF, which directly stimulates adenylate cyclase.
The non-radioactive assay of Example 2 is at least 5 times more sensitive than the modified Salomon radioactive assay of Example 1. In Table 3, 5 μl of membrane preparation were used to measure adenylate cyclase activity in the non-radioactivity assay compared to 25 μl with the radioactive preparations. In a separate experiment, the volume of membrane suspension was reduced from 25 μl to 5 μl. By proportionally reducing the assay volume size, no difference in basal (58.4±3.9), isoproterenol (10^-6 M) (128±7.6) or NaF (10^-2 M) (331.9±42.8) stimulated activity was observed when results were compared to larger assay volumes present. EXAMPLE 5.

Experiment [3] deals with adenylate cyclase. The experiment is described as follows: Effect of theophylline on basal and isoproterenol-stimulated adenylate cyclase activity. Type of experiment: biochemical. The text has this:
To investigate the effects of theophylline on basal adenylate cyclase activity, increasing concentrations of theophylline were studied (Table 2).

As to `CC(C)NCC(O)c1ccc(O)c(O)c1` (centres unmarked) [isoproterenol], the “Agonist-stimulated adenylate cyclase activity, radioactive assay” value in experiment [1] is recorded as 38.3 ± 2.3 pmoles of cAMP/mg/min. Moreover, in experiment [2], the “Agonist-stimulated adenylate cyclase activity, fluorescent assay” value is reported as 110.0 ± 3.3 pmoles of cAMP/mg/min and the “stimulated activity, reduced assay volume” value was determined as 128±7.6. Further, the “"fold" stimulation (agonist-stimulated activity/basal activity) of adenylate cyclase activity” value in experiment [3] (at a given concentration of isoproterenol, in the presence of theophylline) is reported as “constant”. The “Isoproterenol Stimulated adenylate cyclase activity” value in experiment [3] (isoproterenol 10^-6 M, control (no theophylline), n = 5) was 51.73 ± 10.47 pmol/mg/min.
For `[F-].[Na+]` [NaF, Sodium Fluoride], the “Agonist-stimulated adenylate cyclase activity, radioactive assay” value in experiment [1] is given as 106.2 ± 3.5 pmoles of cAMP/mg/min. For the same compound, in experiment [2], the “Agonist-stimulated adenylate cyclase activity, fluorescent assay” value is on record as 346.7 ± 15.9 pmoles of cAMP/mg/min and the “stimulated activity, reduced assay volume” value is listed as 331.9±42.8.

Source of the values: patent US5618665A, “Enzymatic fluorometric assay for adenylate cyclase” (Regents of the University of Minnesota, priority 1994, dated 1997).
